Source: US20120294837A1, “METHODS OF ISOLATING AND CULTURING MESENCHYMAL STEM CELLS” (UNIVERSITY OF ROCHESTER, priority 2010, published 2012)

Assays:
cleaved Notch2 (NICD2) = experiment: Western blot for cleaved, active Notch2 (NICD2) in cultured limb-bud derived MSCs; assay type: cell-based, mouse; conditions: DAPT 1 um, cultured overnight, vs absence of DAPT
Experimental: Total protein was isolated from either whole mouse limb-bud tissue or cultured limb-bud derived MSCs using Golden lysis buffer. The cultured limb-bud derived MSCs were plated at the density of 6×10^6 cells in 10 cm dishes and cultured overnight in 10% FBS DMEM media both in the presence and absence of DAPT (1 um). Protein samples (˜100 μg) from each isolation were subsequently separated on 10% SDS-polyacrylamide and transferred to a PVDF membrane. NICD1 and NICD2 cleaved proteins were detected using the bTAN 20 (Notch1) and C651.6DdHN (Notch2) primary antibodies (0.4 ug/ml) and then further probed with appropriate secondary antibody (1:3000). Anti-β-actin antibody (Sigma; St. Louis, Mo.) was used as a control for equal protein loading. Immunoblots were detected using Supersignal west femto maximum sensitivity substrate (Pierce; Rockford, Ill.).
To determine which Notch receptor is active in the limb-bud mesenchyme, total protein was isolated from cultured MSCs in the presence and absence of the Notch inhibitor, N-(3,5-difluorophenylacetyl-L-alanyl)]-S-phenylglycine t-ButylEster (DAPT, Calbiochem; San Diego, Calif.), or directly from wild-type E11.5 whole limb-bud tissue, and performed western blot analyses using Notch1 and Notch2 antibodies that can detect the cleaved or active (NICD) form of the receptor. […]

limb-bud derived MSCs [1] = experiment: Limb-bud MSC micromass chondrogenic differentiation (Alcian blue staining, real-time RT-PCR); assay type: cell-based, mouse
Experimental: (§1) Limb-bud derived MSCs were isolated from E11.5 CD1 mouse embryos as previously described (Zhang et al., Bone 34:809-17 (2004)). For chondrogenic differentiation, MSCs were seeded in micromass (1×10^5 cells in […]) in 12-well plates for 1.5 hours before adding standard media, media containing DAPT (1 μM), or media containing Hes1 shRNA lentivirus. Cells were cultured for a time-course of 6 hours, 3, 5, and 7 days prior to harvest for cartilage staining (1% Alcian blue/3% glacial acetic acid) or total RNA isolations. Limb-bud derived MSCs were also cultured in monolayer for 21 days and treated with either osteogenic (10 nM dexamethasone; 50 μM ascorbic acid; 10 mM β-glycerolphosphate) or adipogenic medium (Millipore; Billerica, Mass.) in the presence and absence of DAPT. Fixed MSCs were stained for osteoblastic differentiation using an alkaline phosphatase stain (nitro blue tetrazolium chloride/5-bromo-4-chloro-3-indolyhosphate P-toluidine salt) or adipogenic differentiation using an Oil Red-O staining solution (0.36%). Total RNA was isolated from monolayer cultures at day 21 for use in real-time RT-PCR analyses.
(§2) Embryonic limb-bud tissues or micromass cultures were frozen in liquid nitrogen and then homogenized in Trizol Reagent (Invitrogen; Carlsbad, Calif.) via rendering through a 25-gauge needle and syringe. Total cellular RNA was extracted following the manufacture's protocol. RNA was quantified using a NanoDrop spectrophotometer (NanoDrop; Wilmington, Del.) and equal concentrations of total RNA were pooled for synthesis of cDNA. Total RNA (1 μg) was reverse transcribed using the iScript™ cDNA synthesis kit (Bio-Rad; Hercules, Calif.) according to the manufacture's instructions. Reverse transcribed cDNA was analyzed by real-time RT-PCR with mouse-specific primers for: Sox9, Runx2, Col2a1, Agc1, Col1a1, Ap, Oc, Pparγ, Jagged1, Jagged2, Delta-like1, Delta-like3, Delta-like4, Notch1, Notch2, Notch3, Notch4, Hes1, Hes3, Hes5, Hes7, Hey1, Hey2, HeyL, and CyclinD1. Primers were designed using Applied Biosystems software (Applied Biosystems; Foster City, Calif.). Sequences are available upon request. DNA amplification was achieved using the SYBR® Green PCR Master Mix (Applied Biosystems; Foster City, Calif.) and the RotorGene real-time DNA amplification system (Corbett Research; Sydney, Australia). Gene expression was normalized to β-actin expression levels and then normalized to control samples.
To determine the role of Notch signaling in MSCs, Notch loss-of-function assays were performed on E11.5 limb-bud derived MSC cultures using the Notch inhibitor, DAPT. […] The effect of DAPT was also assessed on the expression of the chondrogenic markers Sox9, Col2a1, and Agc1 via real-time RT-PCR.

limb-bud derived MSCs [2] = experiment: Limb-bud MSC osteogenic monolayer differentiation (alkaline phosphatase staining, real-time RT-PCR); assay type: cell-based, mouse; conditions: DAPT 1 μM, 21 days
Experimental: as §1
as §2, with “Sequences are available upon request. DNA amplification was achieved using the SYBR® Green PCR Master Mix (Applied Biosystems; Foster City, Calif.) and the RotorGene real-time DNA amplification system (Corbett Research; Sydney, Australia). Gene expression was normalized to β-actin expression levels and then normalized to control samples.” left out

limb-bud derived MSCs [3] = experiment: Limb-bud MSC adipogenic monolayer differentiation (Oil Red-O staining, real-time RT-PCR); assay type: cell-based, mouse; conditions: DAPT 1 μM, 21 days
Experimental: as §1
as §2, with “Sequences are available upon request. DNA amplification was achieved using the SYBR® Green PCR Master Mix (Applied Biosystems; Foster City, Calif.) and the RotorGene real-time DNA amplification system (Corbett Research; Sydney, Australia). Gene expression was normalized to β-actin expression levels and then normalized to control samples.” left out

Notch signaling in hMSCs = experiment: RBPjP-dependent Notch luciferase reporter in hMSCs cultured on Jag1 coated plates; assay type: cell-based, human
Experimental: This lentivirus expresses GFP allowing determination of infection efficiency after 24 hours and during multiple passages of the cells. […] A protocol for coating culture dishes with the recombinant Jag1 protein using 5 μg/ml, 10 μg/ml, and 15 μg/ml concentrations of Jag1 and 10 μg/ml concentration of IgG as controls was established. […] Next, to confirm that this Jag1 coating technology induced Notch signaling in hMSCs, hMSCs transfected with the RBPjP-dependent Notch luciferase reporter were cultured on 5 μg/ml, 10 μg/ml, and 15 μg/ml Jag1 and IgG coated plates.

hMSCs [4] = experiment: Real-time RT-PCR of Notch target and stem cell regulator genes in hMSCs on Jag1 coated plates; assay type: cell-based, human; conditions: Jag1 coated plates 10 μg/ml, passage 3 hMSCs, 24 hours
Experimental: (§3) To determine if Notch signaling can induce important regulators of stem cell maintenance, passage 3 hMSCs were cultured on Jag1 and IgG coated plates for 24 hours and isolated RNA for real-time RT-PCR analyses (FIG. 11B). […] Therefore, Jag1/Notch signaling regulated hMSC maintenance and expansion via this network of stem cell factors. Finally, the same culture system and passage 3 hMSCs were used to determine if Jag1 regulated the proliferation of hMSCs over a relatively short time interval. BrdU ELISA assays were performed for hMSCs cultured on Jag1 and IgG coated plates for 24 hours.

hMSCs [5] = experiment: BrdU ELISA proliferation assay of hMSCs on Jag1 coated plates; assay type: cell-based, human; conditions: passage 3 hMSCs, 24 hours, vs IgG
Experimental: as §3

| alkaline phosphatase staining (limb-bud derived MSCs [2]; osteogenic media) | expression of osteoblast marker genes Col1a1, AP, and Oc (limb-bud derived MSCs [2]; real-time RT-PCR) | luciferase activity of Notch reporter (Notch signaling in hMSCs; plates coated with 10 μg/ml Jag1, 5, 10 and 15 μg/ml compared, IgG control) | Compound | abundance of the cleaved Notch2 (NICD2) (cleaved Notch2 (NICD2)) | cartilage nodule formation (limb-bud derived MSCs [1]; 1 μM DAPT, micromass culture, Alcian blue) | Agc1 expression (limb-bud derived MSCs [1]; DAPT 1 μM, day 7, real-time RT-PCR) | Sox9, Col2a1, and Agc1 expression (limb-bud derived MSCs [1]; DAPT 1 μM, first 3-5 days of culture, vs untreated cultures, real-time RT-PCR) | limb-bud MSC differentiation (limb-bud derived MSCs [1]; continuous DAPT 1 μM vs vehicle, chondrogenic, osteogenic and adipogenic cultures (FIG. 2A-2C)) | osteoblastic differentiation of MSCs (limb-bud derived MSCs [2]; osteogenic media) | Oil Red-0 staining (limb-bud derived MSCs [3]; adipogenic media) | adipogenic differentiation of MSCs (limb-bud derived MSCs [3]; adipogenic media) | expression of the adipocyte marker gene Pparγ (limb-bud derived MSCs [3]; real-time RT-PCR) | hMSC growth, cell size, shape, cell survival on coated plates (Notch signaling in hMSCs; Jag1 coated plates) | Oct4 expression compared to Sox2 and Nanog (hMSCs [4]) | Hes1 expression over controls (hMSCs [4]; vs IgG) | expression of Oct4, Sox2, and Nanog (hMSCs [4]; vs IgG) | increase of BrdU incorporation as compared to controls (hMSCs [5]) |
| --- | --- | --- | --- | --- | --- | --- | --- | --- | --- | --- | --- | --- | --- | --- | --- | --- | --- |
| elevated alkaline phosphatase staining | significant increase | – | C[C@H](NC(=O)Cc1cc(F)cc(F)c1)C(=O)N[C@H](C(=O)OC(C)(C)C)c1ccccc1 [DAPT] | reduce the abundance of the cleaved Notch2 (NICD2) | significantly enhanced cartilage nodule formation | significantly reduced | enhanced | enhances limb-bud MSC differentiation without biasing lineage determination | enhanced normal osteoblastic differentiation | elevated Oil Red-0 staining | enhanced normal adipogenic differentiation | increase | – | – | – | – | – |
| – | – | maximal luciferase activity | Jag1: recombinant Jag1 protein, Notch ligand, coated on culture dishes to activate Notch signaling | – | – | – | – | – | – | – | – | – | no obvious changes in cell size, shape, or cell survival | only mildly enhanced | approximately 7 fold | induced the expression | more than 50% |
